# Data: patent US4241074A, “Prostaglandin analogues” (Beecham Group Limited, priority 1978, dated 1980)
# Experiments:
# [1] = test system: broncho-constriction induced by an histamine aerosol; assay: protection of conscious guinea-pigs against broncho-constriction induced by an histamine aerosol (Herxheimer test); format: in vivo, guinea-pig
# Method: (b) The Compounds were also examined for their ability to protect conscious guinea-pigs against broncho-constriction induced by an histamine aerosol (Herxheimer test). The Compounds were administered by aerosol.
# The aerosol was produced in the following manner.
# Water soluble Compounds were dissolved in normal saline at a concentration of […]. Water insoluble Compounds were dissolved in ethanol at a concentration of 10 μg/ml. These solutions were then diluted to the test concentrations with normal saline.
# [2] = test system: 5-hydroxytryptamine induced bronchoconstriction; assay: inhibition of 5-hydroxytryptamine induced bronchoconstriction in the anaesthetised, artificially respired guinea-pig (Konzett-Rossler preparation); format: in vivo; details: Cavia porcellus, iv, vs 5-hydroxytryptamine, read-out: Konzett-Rossler Test Ed50
# Source text: (a) The Compounds were examined for their ability to inhibit 5-hydroxytryptamine induced bronchoconstriction in the anaesthetised, artificially respired guinea-pig (Konzett-Rossler preparation).
# [3] = test system: indomethacin induced gastric ulceration; assay: inhibition of indomethacin induced gastric ulceration in the rat; format: in vivo
# Source text: The compounds were examined for their ability to inhibit indomethacin induced gastric ulceration in the rat and the activities are shown in Table 2.
SMILES,% Increase in pre-convulsive coughing time at a dose of 10 μg/ml ([1]; after 2 mins.) [%],ED50 [2] [µg/kg],% Inhibition of Damage ([3]; 100 mg/kg p.o.) [%],further results
"CCCCCCC(C)(O)CCN1C(=O)NC(=O)C1CCCCCCCC(C)=O (stereo not shown) [Compound 8, 1-(3'-hydroxy-3'-methyl-n-nonyl)-5-(8""-oxo-n-nonyl) hydantoin]",81,–,–,–
"CCCCCCC(C)(O)CCN1C(=O)N(C)C(=O)C1CCCCCCC(C)=O (stereo not shown) [Compound 9, 1-(3'-hydroxy-3'-methyl-n-nonyl)-3-methyl-5-(7""-oxo-n-octyl) hydantoin]",–,67.5,–,–
"CC(=O)CCCCCCCC1C(=O)N(C)C(=O)N1CCC(C)(O)C1CCCCC1 (stereo not shown) [Compound 11, 1-(3'-hydroxy-3'-cyclohexyl-n-butyl)-3-methyl-5-(8""-oxo-n-nonyl) hydantoin]",140,1,–,% Increase in pre-convulsive coughing time at a dose of 10 μg/ml ([1]; after 5 mins.): 23%
"CCCCCCC(C)(O)CCN1C(=O)N(C)C(=O)C1CC#CCCCCC(C)=O (stereo not shown) [Compound 6, 1-(3'-hydroxy-3'-methyl-n-nonyl)-3-methyl-5-(8""-oxo-non-2-ynyl) hydantoin]",29,–,–,% Increase in pre-convulsive coughing time at a dose of 10 μg/ml ([1]; after 5 mins.): 15%
"CCCCCCC(C)(O)CCN1C(=O)N(C)C(=O)C1CCCCCCCC(C)=O (stereo not shown) [Compound 1, 1-(3'-hydroxy-3'-methyl-n-nonyl)-3-methyl-5-(8""-oxo-n-nonyl) hydantoin]",–,1.4,100,% Inhibition of Damage ([3]; 25 mg/kg p.o.): 64%; % Inhibition of Damage ([3]; 50 mg/kg p.o.): 74%
"CCCCCCC(C)(O)CCN1C(=S)N(C)C(=O)C1CCCCCCCC(C)=O (stereo not shown) [Compound 2, 1-(3'-hydroxy-3'-methyl-n-nonyl)-3-methyl-5-(8""-oxo-n-nonyl)-2-thiohydantoin]",–,–,100,–
"CCCCCCC(C)(O)CCN1CN(C)C(=O)C1CCCCCCCC(C)=O (stereo not shown) [Compound 3, 1-(3'-hydroxy-3'-methyl-n-nonyl)-3-methyl-5-(8""-oxo-n-nonyl)-4-imidazolidone]",–,–,65,–
